Source: US20230089368A1, “POLYAROMATIC UREA DERIVATIVES AND THEIR USE IN THE TREATMENT OF MUSCLE DISEASES” (ANAGENESIS BIOTECHNOLOGIES S.A.S., priority 2019, published 2023)

What was measured:
[1] = tested on: muscle progenitors (hMP) from DMD hiPSC or WT hiPSC; experiment: Myotube assay: myogenic activity (total myotube area per well); assay type: cell-based, human; conditions: Homo sapiens, 72 h, myotube assay, compounds incubated 3 days; for Emax: read-out: MA (normalized Myotube Area, efficacy)
Procedure: An in vitro assay for assessing the efficacy of compounds for use in treating, ameliorating, delaying, curing and/or preventing a disease or condition associated with muscle cells and/or satellite cells is described in example 78. Herein, the generation of myotubes and satellite cells after adding a compound to a myotube assay workflow is assessed. Said myotube assay workflow is derived from wild-type or DMD human induced pluripotent stem cells (WT hiPSC or DMD hiPSC). Before the addition of said compound, the assay comprises satellite-like cells, but no significant amount of myotubes.
(§1) The efficacy of said compound for use in treating, ameliorating, delaying, curing and/or preventing a disease or condition associated with muscle cells and/or satellite cells is positively correlated with the generation of myotubes (i.e. the increase of the area occupied by myotubes on the assay) and/or satellite cells (i.e. the increase of the number of satellite cells) in the assay after adding said compound. The generation of myotubes by the addition of said compound is expressed as the EC50 value, the concentration of said compound that corresponds with the half-maximal generation of myotubes, and the MA (normalized myotube area) value, the normalized area occupied by generated myotubes on the assay. […] Since muscle cells are formed from myotubes during myogenesis, the generation of myotubes in the assay is a good indicator of the ability of said compound to induce the formation of functional muscle cells in vivo. The number of satellite cells is measured as the percentage of Pax7 positive cells, relative to the total number of cells in the assay, as shown in FIG. 3. The percentage of Pax7 is a good indicator of the ability of said compound to induce the formation of satellite cells which are able to play a role in muscle repair and regeneration in vivo.
(§2) DMD human induced pluripotent stem cells (hereafter “DMD hiPSC”), generated from the NORM-1 hiPSC WT cell line by gene editing, or WT human induced pluripotent stem cells (hereafter “WT hiPSC”), being NORM-1 hiPSC wt cell line, have been differentiated according to Chal et al. 2015, 2016, to produce muscle progenitors (hereafter “hMP”). The hMP population contains satellite-like cells (i.e Pax7-positive cells) and satellite cells' progenies (i.e. Myogenin-positive cells).
(§3) FIG. 1 provides an example of a Myotube assay workflow. At day 0, hMP are thawed and 3.1 million cells are plated into a T75-flask coated with hESC-qualified Matrigel™ (Corning) in SkGM proliferating medium (PromoCells), supplemented with 5 μM Y-27632 (Tocris Bioscience). On day 2, SkGM proliferating medium is refreshed. On day 4, hMP are harvested and transferred into a 384-well plate coated with collagen type I at a density of 3500 cells/well in a DMEM-based medium, containing 5% of knockout serum replacement (Gibco), 1% PenStrep (Gibco), 1% MEM NEAA (Gibco) and 0.1 mM 2-mercaptoethanol (Gibco) (hereafter “K5 medium”) and 5 μM Y-27632. Compounds to be tested are then added in the medium and incubated for 3 days at 37° C. On day 7, cells are fixed and immunostained. For example, myotubes (alpha-actinin staining) and satellite-like (Pax7 staining) cells can be analyzed for total myotube area per well or Pax7-positive cell quantification.
(§4) DMD hMP were put in the Myotube assay according to the workflow described in Example 2.1. In particular, compound (i) was added at concentrations ranging from 1.5 nM to 30 μM, starting from day 4. hMP were cultivated for three more days in presence of compound (i), then fixed and analyzed for quantification of total myotube area per well. Duplicates of each condition were averaged.
Qualitative scale: ++++: EC50<500 nM; +++: 500 nM≤EC50<1000 nM; ++: 1000 nM≤EC50<5000 nM; +: EC50≥5000 nM; +++: MA≥75%; ++: 50%≤MA<75%; +: 25%≤MA<50%.

[2] = tested on: satellite-like cells (Pax7-positive cells) in hMP; experiment: Myotube assay: Pax7-positive (satellite-like) cell quantification; assay type: cell-based, human; design: key to Pax7% (pool of Pax7-positive cells) / Pax7: −: Depletes the pool of cells, while positively affects the myotubes; +: Maintains or increases the pool of cells, with at least 1 of the highest concentration known to be cytotoxic; ++: Maintains or increases the pool of cells, without any toxicity; conditions: myotube assay, compounds incubated 3 days
Text: as §1, §2, §3
as §4, with “percentage” for “quantification”, “Pax7-positive cells and nuclei number.” for “total myotube area per well.”
(−): Depletes the pool of cells, while positively affects the myotubes; (+): Maintains or increases the pool of cells, with at least 1 of the highest concentration known to be cytotoxic; and (++) Maintains or increases the pool of cells, without any toxicity.

SMILES | Emax [1] | Pax7% (pool of Pax7-positive cells) [2] | EC50 ([1]; 10 points dose-response 1.5 nM to 30 μM, read-out: EC50 (myogenic activity, half-maximal generation of myotubes))
CC(C)c1cc(Oc2ccnc3[nH]c(=O)cnc23)ccc1NC(=O)Nc1cc(C(C)(C)C)nn1-c1ccccc1 [(bk), 1-(3-(tert-butyl)-1-phenyl-1H-pyrazol-5-yl)-3-(2-isopropyl-4-((3-oxo-3,4-dihydropyrido[2,3-b]pyrazin-8-yl)oxy)phenyl)urea] | ≥ 75% | ++ | 
CC(C)(C)c1cc(NC(=O)Nc2ccc(Oc3ccncc3)cc2)n(-c2ccccc2)n1 [(bl), 1-(3-(tert-butyl)-1-phenyl-1H-pyrazol-5-yl)-3-(4-(pyridin-4-yloxy)phenyl)urea] | 50 to 75% | + | 
CSc1cc(Oc2ccnc3[nH]c(=O)cnc23)ccc1NC(=O)Nc1cc(C(C)(C)C)nn1-c1ccc2ncccc2c1 [(bm), 1-(3-(tert-butyl)-1-(quinolin-6-yl)-1H-pyrazol-5-yl)-3-(2-(methylthio)-4-((3-oxo-3,4-dihydropyrido[2,3-b]pyrazin-8-yl)oxy)phenyl)urea] | ≥ 75% | + | 
CSc1cc(Oc2ccnc3[nH]c(=O)cnc23)ccc1NC(=O)Nc1cc(C(C)(C)C)nn1C1CCCCC1 [(bn), 1-(3-(tert-butyl)-1-cyclohexyl-1H-pyrazol-5-yl)-3-(2-(methylthio)-4-((3-oxo-3,4-dihydropyrido[2,3-b]pyrazin-8-yl)oxy)phenyl)urea] | 50 to 75% | ++ | 
CC(C)(C)c1cc(NC(=O)Nc2ccc(Oc3ccnc4[nH]c(=O)cnc34)c(F)c2F)n(-c2ccccc2)n1 [(bo), 1-(3-(tert-butyl)-1-phenyl-1H-pyrazol-5-yl)-3-(2,3-difluoro-4-((3-oxo-3,4-dihydropyrido[2,3-b]pyrazin-8-yl)oxy)phenyl)urea] | ≥ 75% | + | 
CSc1cc(Oc2ccnc(NC(=O)CN(C)C(=O)OC(C)(C)C)c2)ccc1NC(=O)Nc1cc(C(C)(C)C)nn1-c1ccccc1 [(bp), tert-butyl (2-((4-(4-(3-(3-(tert-butyl)-1-phenyl-1H-pyrazol-5-yl)ureido)-3-(methylthio)phenoxy)pyridin-2-yl)amino)-2-oxoethyl)(methyl)carbamate] | ≥ 75% | + | 
CNCC(=O)Nc1cc(Oc2ccc(NC(=O)Nc3cc(C(C)(C)C)nn3-c3ccccc3)c(SC)c2)ccn1 [(bq), N-(4-(4-(3-(3-(tert-butyl)-1-phenyl-1H-pyrazol-5-yl)ureido)-3-(methylthio)phenoxy)pyridin-2-yl)-2-(methylamino)acetamide] | ≥ 75% | + | < 500 nM
CNC(=O)c1cc(Oc2ccc(NC(=O)Nc3cc(C(C)(C)C)nn3-c3ccccc3)c(SC)c2)ccn1 [(br), 4-(4-(3-(3-(tert-butyl)-1-phenyl-1H-pyrazol-5-yl)ureido)-3-(methylthio)phenoxy)-N-methylpicolinamide] | ≥ 75% | ++ | 
CSc1cc(Oc2ccnc3nccnc23)ccc1NC(=O)Nc1cc(C(C)(C)C)nn1-c1ccccc1 [(bs), 1-(3-(tert-butyl)-1-phenyl-1H-pyrazol-5-yl)-3-(2-(methylthio)-4-(pyrido[2,3-b]pyrazin-8-yloxy)phenyl)urea] | ≥ 75% | ++ | 
CC(C)(C)c1cc(NC(=O)Nc2cc(F)c(Oc3ccnc4[nH]c(=O)cnc34)cc2F)n(-c2ccccc2)n1 [(bt), 1-(3-(tert-butyl)-1-phenyl-1H-pyrazol-5-yl)-3-(2,5-difluoro-4-((3-oxo-3,4-dihydropyrido[2,3-b]pyrazin-8-yl)oxy)phenyl)urea] | ≥ 75% | ++ | 
CSc1cc(Oc2cccc3[nH]c(=O)cnc23)ccc1NC(=O)Nc1cc(C(C)(C)C)nn1-c1ccccc1 [(bu), 1-(3-(tert-butyl)-1-phenyl-1H-pyrazol-5-yl)-3-(2-(methylthio)-4-((2-oxo-1,2-dihydroquinoxalin-5-yl)oxy)phenyl)urea] | 25 to 50% | ++ | 
CSc1cc(Oc2ncnc3[nH]c(=O)cnc23)ccc1NC(=O)Nc1cc(C(C)(C)C)nn1-c1ccccc1 [(bv), 1-(3-(tert-butyl)-1-phenyl-1H-pyrazol-5-yl)-3-(2-(methylthio)-4-((7-oxo-7,8-dihydropteridin-4-yl)oxy)phenyl)urea] | ≥ 75% | ++ | 
CSc1cc(Oc2ccnc3[nH]c(=O)cnc23)ccc1NC(=O)Nc1cc(C(C)(C)C)nn1-c1cccc(F)c1 [(bw), 1-(3-(tert-butyl)-1-(3-fluorophenyl)-1H-pyrazol-5-yl)-3-(2-(methylthio)-4-((3-oxo-3,4-dihydropyrido[2,3-b]pyrazin-8-yl)oxy)phenyl)urea] | ≥ 75% | ++ | 
CSc1cc(Oc2ccnc3[nH]c(=O)cnc23)ccc1NC(=O)Nc1cc(C(C)(C)C)no1 [(bx), 1-(3-(tert-butyl)isoxazol-5-yl)-3-(2-(methylthio)-4-((3-oxo-3,4-dihydropyrido[2,3-b]pyrazin-8-yl)oxy)phenyl)urea] | ≥ 75% | ++ | 
CSc1cc(Oc2ccnc3c2CCC(=O)N3)ccc1NC(=O)Nc1cc(C(C)(C)C)nn1-c1ccc(C)cc1 [(by), 1-(3-(tert-butyl)-1-(p-tolyl)-1H-pyrazol-5-yl)-3-(2-(methylthio)-4-((7-oxo-5,6,7,8-tetrahydro-1,8-naphthyridin-4-yl)oxy)phenyl)urea] | ≥ 75% | + | 
CSc1cc(Oc2ccnc3c2CCC(=O)N3)ccc1NC(=O)Nc1cc(C(C)(C)C)nn1-c1cccc(Cl)c1 [(bz), 1-(3-(tert-butyl)-1-(3-chlorophenyl)-1H-pyrazol-5-yl)-3-(2-(methylthio)-4-((7-oxo-5,6,7,8-tetrahydro-1,8-naphthyridin-4-yl)oxy)phenyl)urea] | ≥ 75% | + | 
CCC(C)c1cc(NC(=O)Nc2ccc(Oc3ccnc4[nH]c(=O)cnc34)cc2F)n(-c2ccccc2)n1 (stereo not drawn) [(c), 1-(3-(sec-butyl)-1-phenyl-1H-pyrazol-5-yl)-3-(2-fluoro-4-((3-oxo-3,4-dihydropyrido[2,3-b]pyrazin-8-yl)oxy)phenyl)urea] | 50 to 75% | + | 
CSc1cc(Oc2ccnc3[nH]c(=O)cnc23)ccc1NC(=O)Nc1nc(C(C)(C)C)cs1 [(ca), 1-(4-(tert-butyl)thiazol-2-yl)-3-(2-(methylthio)-4-((3-oxo-3,4-dihydropyrido[2,3-b]pyrazin-8-yl)oxy)phenyl)urea] | ≥ 75% | ++ | 
CSc1cc(Oc2ccnc3c2CCC(=O)N3)ccc1NC(=O)Nc1ncc(C(C)(C)C)s1 [(cb), 1-(5-(tert-butyl)thiazol-2-yl)-3-(2-(methylthio)-4-((7-oxo-5,6,7,8-tetrahydro-1,8-naphthyridin-4-yl)oxy)phenyl)urea] | ≥ 75% | ++ | 
